Experimental findings from ChEMBL document CHEMBL3872235, “Synthesis and biological evaluation of allylated mono-carbonyl analogues of curcumin (MACs) as anti-cancer agents for cholangiocarcinoma” (Bioorg Med Chem Lett, 2016) are described below.

Where only a bound is given, the exact number is not on record here.

Series [1] is described as follows: Cytotoxicity against RBEC assessed as cell survival at 20 uM after 24 hrs by MTT assay. The settings on record: rat, RBEC cells; read-out: Survival. The series is classed as toxicity.
Series [2] in a line: Induction of apoptosis in RBEC at 7.5 uM after 24 hrs by annexin V/propidium iodide staining based flow cytometry (reference value: 2.3%). As to conditions: rat. A general note: In flow cytometry, cells or beads pass a laser one at a time; call rule not given here.
Series [3] relates to QBC939. Description: Increase in p53 expression in human QBC939 cells after 24 hrs by Western blot analysis. The class given is functional, cell-based. A general note: In western blotting, separated proteins are transferred to a membrane and probed.
A short description of series [4]: Induction of apoptosis in human QBC939 cells at 7.5 uM after 24 hrs by annexin V/propidium iodide staining based flow cytometry (reference value: 2.21%). The series is classed as functional.
Series [5] is described as follows: Decrease in Cdc2 expression in human QBC939 cells after 24 hrs by Western blot analysis. The series is classed as functional, cell-based.
Series [6] can be described thus: Induction of apoptosis in HUCCA cells at 7.5 uM after 24 hrs by annexin V/propidium iodide staining based flow cytometry (reference value: 9.6%). The class given is functional, Homo sapiens.
Series [7] in a line: Cell cycle arrest in HUCCA cells assessed as accumulation at G2/M phase after 24 hrs by flow cytometric analysis. The series is classed as functional, cell-based. The settings on record: Homo sapiens.
Series [8] can be described thus: Cytotoxicity against human HL7702 cells assessed as decrease in cell viability after 24 hrs by MTT assay. The settings on record: L02, 24 h. The class given is functional, cell-based. In general terms: Tetrazolium assays rely on reduction of a dye to a coloured formazan, in cell work by metabolically active cells.
A short description of series [9]: Induction of apoptosis in HUCCA cells at 5 uM after 24 hrs by annexin V/propidium iodide staining based flow cytometry (reference value: 9.6%). The series is classed as functional, Homo sapiens.
Series [10] deals with HUCCA. Description: Induction of apoptosis in HUCCA cells assessed as decrease in Bcl-2 protein expression after 24 hrs by Western blot analysis. The class given is functional, cell-based. As to conditions: Homo sapiens.
For series [11], the system named is HUCCA. Description: Increase in p53 expression in HUCCA cells after 24 hrs by Western blot analysis. The series is classed as functional, cell-based. The settings on record: Homo sapiens.
Series [12] has as its system HUCCA. Description: Induction of apoptosis in HUCCA cells assessed as increase in Bax protein expression after 24 hrs by Western blot analysis. The series is classed as functional, cell-based. As to conditions: Homo sapiens.
Series [13] in a line: Induction of apoptosis in human QBC939 cells at 10 uM after 24 hrs by annexin V/propidium iodide staining based flow cytometry (reference value: 2.21%). The series is classed as functional.
The nature of series [14]: Cell cycle arrest in RBEC cells assessed as accumulation at G2/M phase after 24 hrs by flow cytometric analysis. As to conditions: rat. The series is classed as ADME, cell-based.
Series [15] is described as follows: Induction of apoptosis in human QBC939 cells at 5 uM after 24 hrs by annexin V/propidium iodide staining based flow cytometry (reference value: 2.21%). The class given is functional.
A short description of series [16]: Increase in p53 expression in RBEC after 24 hrs by Western blot analysis. The settings on record: rat.
The nature of series [17]: Induction of apoptosis in RBEC after 24 hrs by annexin V/propidium iodide staining based flow cytometry. As to conditions: rat.
A short description of series [18]: Drug degradation in phosphate buffer at pH 7.4 measured up to 25 mins by UV-Vis spectral analysis. The settings on record: for Stability: buffer, pH 7.4, 25 min. The series is classed as physicochemical.
The nature of series [19]: Decrease in Cdc2 expression in HUCCA cells after 24 hrs by Western blot analysis. The class given is functional, cell-based. The settings on record: Homo sapiens.
Series [20] can be described thus: Induction of apoptosis in RBEC assessed as decrease in Bcl-2 protein expression after 24 hrs by Western blot analysis. The settings on record: rat.
A short description of series [21]: Cytotoxicity against HIBEC assessed as decrease in cell viability after 24 hrs by MTT assay. The series is classed as toxicity. The settings on record: human, HIBEC cells.
Series [22] in a line: Cytotoxicity against human QBC939 cells assessed as decrease in cell viability after 24 hrs by MTT assay. The series is classed as functional, cell-based. As to conditions: QBC939, 24 h.
Series [23] is described as follows: Cell cycle arrest in human QBC939 cells assessed as accumulation at G2/M phase after 24 hrs by flow cytometric analysis. The class given is functional, cell-based.
The subject of series [24] is QBC939. Description: Induction of apoptosis in human QBC939 cells assessed as decrease in Bcl-2 protein expression after 24 hrs by Western blot analysis. The class given is functional, cell-based.
A short description of series [25]: Cytotoxicity against HUCCA cells assessed as decrease in cell viability after 24 hrs by MTT assay. The class given is functional, cell-based. As to conditions: Homo sapiens.
Series [26] in a line: Induction of apoptosis in RBEC at 10 uM after 24 hrs by annexin V/propidium iodide staining based flow cytometry (reference value: 2.3%). As to conditions: rat.
Series [27] relates to HUCCA. Description: Induction of apoptosis in HUCCA cells after 24 hrs by annexin V/propidium iodide staining based flow cytometry. As to conditions: Homo sapiens. The series is classed as functional, cell-based.
Series [28] deals with QBC939. Description: Induction of apoptosis in human QBC939 cells assessed as increase in Bax protein expression after 24 hrs by Western blot analysis. The series is classed as functional, cell-based.
Series [29] deals with HUCCA. Description: Induction of apoptosis in HUCCA cells assessed as decrease in PARP cleavage after 24 hrs by Western blot analysis. The series is classed as functional, cell-based. The settings on record: Homo sapiens.
The nature of series [30]: Decrease in Cdc2 expression in RBEC after 24 hrs by Western blot analysis. The class given is ADME. The settings on record: rat.
Series [31] in a line: Induction of apoptosis in HUCCA cells at 10 uM after 24 hrs by annexin V/propidium iodide staining based flow cytometry (reference value: 9.6%). The series is classed as functional, Homo sapiens.
Series [32] can be described thus: Induction of apoptosis in RBEC assessed as increase in Bax protein expression after 24 hrs by Western blot analysis. The settings on record: rat.
Series [33] relates to QBC939. Description: Induction of apoptosis in human QBC939 cells after 24 hrs by annexin V/propidium iodide staining based flow cytometry. The class given is functional, cell-based.
Series [34] can be described thus: Cytotoxicity against RBEC assessed as decrease in cell viability after 24 hrs by MTT assay. The series is classed as toxicity. As to conditions: rat, RBEC cells.
Series [35] in a line: Induction of apoptosis in RBEC at 5 uM after 24 hrs by annexin V/propidium iodide staining based flow cytometry (reference value: 2.3%). As to conditions: rat.
The nature of series [36]: Induction of apoptosis in RBEC at 20 uM after 24 hrs by annexin V/propidium iodide staining based flow cytometry (reference value: 2.3%). The settings on record: rat.
Series [37] is described as follows: Induction of apoptosis in human QBC939 cells at 20 uM after 24 hrs by annexin V/propidium iodide staining based flow cytometry (reference value: 2.21%). The class given is functional.
Series [38] in a line: Increase in p53 expression in RBEC at 20 uM after 24 hrs by Western blot analysis. The series is classed as ADME. The settings on record: rat.
Series [39] can be described thus: Cell cycle arrest in RBEC cells assessed as accumulation at G2/M phase at 20 uM after 24 hrs by flow cytometric analysis. The class given is cell-based. The settings on record: rat.
The nature of series [40]: Decrease in Cdc2 expression in RBEC at 20 uM after 24 hrs by Western blot analysis. The settings on record: rat.
A short description of series [41]: Induction of apoptosis in HUCCA cells at 20 uM after 24 hrs by annexin V/propidium iodide staining based flow cytometry (reference value: 9.6%). The class given is functional, Homo sapiens.

As for `C=CCc1cc(/C=C2\CN(CCC)C/C(=C\c3cc(OC)c(OC)cc3OC)C2=O)ccc1O`, in series [1], the viability at 24 h, 20 µM is below 50%.

Broadly, the IC50 is the point on the concentration scale where inhibition reaches its midpoint. Regarding `C=CCc1cc(/C=C2\CSC/C(=C\c3ccc(O)c(CC=C)c3)C2=O)ccc1O`, the Activity in [2] is 13.9%; in the series on QBC939 [3], “Dose-dependent effect”; in series [4], 15.8%; in [5] it was “Dose-dependent effect”; in series [6], 31.8%; in series [7], “Dose-dependent effect”. Also, the Activity in [9] was 19.4%; with HUCCA [10] it was “Dose-dependent effect”; in the series with HUCCA [11] it was “Dose-dependent effect”; in the series with HUCCA [12], “Dose-dependent effect”; in series [13], 38.6%; in [14] it was “Dose-dependent effect”. Moreover, the Activity in series [15] was 7.6%; in series [16], “Dose-dependent effect”; in series [17], “Dose-dependent effect”; in [19], “Dose-dependent effect”; in [20] it was “Dose-dependent effect”; in series [23], “Dose-dependent effect”. Besides, the Activity entry in the series on QBC939 [24] was “Dose-dependent effect”; in [26] it was 39.9%; in the series on HUCCA [27] it was “Dose-dependent effect”; with QBC939 [28], “Dose-dependent effect”; with HUCCA [29] it was “Dose-dependent effect”; in series [30] it was “Dose-dependent effect”. In addition, the Activity in [31] is 41.6%; in series [32], “Dose-dependent effect”; in the series on QBC939 [33] it was “Dose-dependent effect”; in [35], 9.3%. The viability at 24 h, 20 µM in [1] was below 50%. Further, the IC50 worked out at 9.7 µM in series [8], 9.3 µM in [22] and 8.7 µM in series [25]. In series [18], the Stability result is “Stable”. Also, the values for the IC50 at 24 h in series [21] and in series [34] were 9.8 µM and 8.1 to 8.9 µM, respectively.

Turning to `C=CCc1cc(/C=C2\CN(C(C)C)C/C(=C\c3ccc(O)c(CC=C)c3)C2=O)ccc1O`, the viability at 24 h, 20 µM in series [1] was below 50%.

For `C=CCc1cc(/C=C2\CC/C(=C\c3ccc(O)c(CC=C)c3)C2=O)ccc1O`, in series [18], the Stability entry is listed as “Stable”. The IC50 at 24 h in series [34] worked out at 10.7 µM.

In the case of `O=c1[nH]cc(F)c(=O)[nH]1` [FLUOROURACIL], the figures for the IC50 in [22] and in series [25] were 16.1 µM and 13.4 µM, respectively. Further, in [34], the IC50 at 24 h is 19.3 µM.

Regarding `COc1cc(/C=C/C(=O)CC(=O)/C=C/c2ccc(O)c(OC)c2)ccc1O` [CURCUMIN], the Activity in series [36] is given as 27.6%; in series [37] it was 18.5%; in series [38] it was “Non-Toxic”; in [39] it was “Non-Toxic”; in series [40], “Non-Toxic”; in [41], 21.7%. The degraded at 25 min in series [18] (phosphate buffer, pH 7.4, read-out: Drug degradation) came out at 50%.

Turning to `C=CCc1cc(/C=C2\CN(C(=O)c3ccccc3)C/C(=C\c3ccc(O)c(CC=C)c3)C2=O)ccc1O`, in series [1], the viability at 24 h, 20 µM was below 50%.

In the case of `C=CCc1cc(/C=C2\CCC/C(=C\c3ccc(O)c(CC=C)c3)C2=O)ccc1O`, in series [1], the viability at 24 h, 20 µM was below 50%.

For `C=CCc1cc(/C=C2\COC/C(=C\c3ccc(O)c(CC=C)c3)C2=O)ccc1O`, the viability at 24 h, 20 µM in series [1] is below 50%. Also, the Stability entry in series [18] is reported as “Stable”. In series [34], the IC50 at 24 h is 15 µM.

As to `C=CCc1cc(/C=C2\CN(S(=O)(=O)CCC)C/C(=C\c3ccc(O)c(CC=C)c3)C2=O)ccc1O`, the viability at 24 h, 20 µM in series [1] is below 50%.

On to `C=CCc1cc(/C=C2\CN(C3CC3)C/C(=C\c3ccc(O)c(CC=C)c3)C2=O)ccc1O`, for which, in series [1], the viability at 24 h, 20 µM is below 50%. Moreover, the concentration for half-maximal inhibition (IC50) at 24 h in series [34] was determined as 14.4 µM.

`C=CCc1cc(/C=C2\CNC/C(=C\c3ccc(O)c(CC=C)c3)C2=O)ccc1O`: in [1], the viability at 24 h, 20 µM was below 50%.

As for `C=CCc1cc(/C=C2\CN(C3CC3)C/C(=C\c3ccc(OC(C)(C)C)cc3)C2=O)ccc1O`, the viability at 24 h, 20 µM in series [1] is below 50%.
